Reference: patent publication US20250009743A1, “METHODS OF TREATING CANCERS USING STING AGONISTS” (Dana-Farber Cancer Institute, Inc., priority 2021, published 2025)

How the values were obtained:
[1] = tested on: ID8-Brca1^−/− tumor cells in WT and STING^−/− mice; test: Macrophages and myeloid DCs in WT and STING^−/− mice injected with ID8-Brca1^−/− tumor cells; assay type: in vivo, mouse; conditions: 24 h treatment; FIG. 21K, FIG. 22D
Protocol: Tumors were chopped and digested in collagenase buffer as described previously (Ding et al., 2018 Cell Rep 25, 2972-2980.e2975). Single cell suspensions of tumor and ascites were obtained by filtering through 70 um strainers and treated with 1× eBioscience RBC lysis buffer (Thermo Fisher) before staining. Single cells suspensions were incubated with LIVE/DEAD Fixable Aqua Dead Cell Stain (Life Technologies, Cat #L34965) for 30 min and then blocked with anti-CD16/32 (Biolegend, clone 93) for 20 min on ice. Samples were then incubated with appropriate antibodies for 30 min on ice. Foxp3 staining buffer set (eBioscience, Cat #00-5523-00) was applied for intracellular markers staining. For the intracellular cytokine analysis, cells were stimulated with Leukocyte Activation Cocktail (BD Biosciences, Cat #550583) at 37° C. for 4-6 hours prior to FACS staining. […] Flow cytometry was performed on an LSRII (BD Biosciences) or Fortessa HTS (BD Biosciences) at DFCI Flow Cytometry Core, and all the data were analyzed using FlowJo software.

[2] = tested on: PE tumors; test: Flow cytometry of immune cells in PE tumors and tumor-drainage lymph nodes; assay type: in vivo, mouse; conditions: single-agent treatment; FIG. 30B
Protocol: To obtain single-cell suspension from tumor mass, tumors were excised, minced and dissociated in collagenase buffer (DMEM supplemented with 5% FBS, 10 mM HEPES [Gibco), 100 μg/mL penicillin-streptomycin, 20 μg/mL DNase I [StemCell] and 1× collagenase/hyaluronidase [StemCell]) at 37° C. for 45 min. Tumor-draining lymph nodes were isolated from tumor-bearing mice and were mashed through 70 μm strainer using plunger of a syringe to obtain single-cell suspension.
For FACS staining, tissue cells were first stained with LIVE/DEAD Fixable Aqua Dead Cell Stain (Thermo Fisher) for 30 min on ice, followed by blocking with anti-CD16/32 (BioLegend) for 20 minutes on ice. Afterwards, cells were incubated with antibodies targeting surface biomarkers in FACS buffer for 30 minutes on ice.

[3] = tested on: PBM-R tumor cells; test: γ-H2AX flow cytometry in PBM-R cells; assay type: cell-based, mouse; conditions: 1 μM olaparib 24 hours
Protocol: (§1) Analysis of p-STAT3 and γ-H2AX (p-HA2X-Ser139) was performed according to a two-step protocol for intracellular phosphorylated signaling proteins (Thermo Fisher). Briefly, cells were incubated with LIVE/DEAD Fixable Aqua Dead Cell Stain for 30 min. After washing, cells were suspended in 100 μl PBS and then fixed by adding an equal volume of IC Fixation Buffer (CAT #00-822-49, Thermo Fisher) directly to cells and incubated at room temperature for 20 min followed by fixing with ice-cold 90% methanol in PBS for 30 min. The fixed cells were blocked and stained with p-STAT3 or γ-H2AX antibodies for flow cytometry analysis as described above.

[4] = tested on: STAT3 phosphorylation in PBM tumor cells; test: p-STAT3 (Y705) in PBM tumor cells (flow cytometry, Western blot); assay type: cell-based, mouse; conditions: PARPi-naïve PBM cells, 24 hours; FIGS. 19D and 20B
Protocol: as §1
Tumor cells were harvested and lysed with ice-cold RIPA buffer supplemented with protease phosphatase inhibitor cocktail (Thermo Fisher). Protein concentration was determined using a Pierce BCA Protein Assay Kit (Thermo Fisher). About 50 μg protein extracts were loaded and separated by SDS-PAGE, and then transferred to polyvinylidene fluoride (PVDF) membranes. After blocking with 5% non-fat milk (Bio-Rad) in PBST (PBS plus 0.2% Tween 20) at room temperature for 1 hr, membranes were incubated with primary antibodies overnight at 4° C.

[5] = tested on: ovarian PDXs DF86, DF101, DF118 and DF149; test: p-STAT3 (Y705) in PARPi-resistant ovarian PDX cells; assay type: cell-based, human; conditions: 5 μM olaparib for 24 hours; FIG. 25B
Excerpt: UWB1.289 and UWB1.289+BRCA1 were purchased from ATCC and cultured in epithelial complete growth medium (50% ATCC-formulated RPMI-1640 medium, 50% MEGM medium and 3% fetal bovine serum) as described previously (Ding et al., 2018, Cell Rep 25, 2972-2980.e2975). ID8-Brca^+/+ and ID8-Brca^−/− cells were previously generated by CRISPR-Cas9 technology. The ovarian cancer patient-derived tumor xenografts (PDX) were established at Dana-Farber Cancer Institute by intraperitoneally implanting tumor cells that isolated from patients' ascites into irradiated nude mice (Liu et al., 2017; Clinical cancer research: an official journal of the American Association for Cancer Research 23, 1263-1273). The established PDX models were maintained by intraperitoneally transplantation in NOD/SCID IL2Rgnull mice (NSG, The Jackson Laboratory). The ovarian PDX cells could be cultured in the epithelial complete growth medium for about 3 to 4 days for in vitro experiments.
Analysis of p-STAT3 and γ-H2AX (p-HA2X-Ser139) was performed according to a two-step protocol for intracellular phosphorylated signaling proteins (Thermo Fisher). Briefly, cells were incubated with LIVE/DEAD Fixable Aqua Dead Cell Stain for 30 min. […]

Structure (SMILES)	myeloid DC activation and TAM repolarization in WT mice [1]	tumor immune microenvironment of large PE tumors [2]	DNA damage (γ-H2AX) ([3]; PBM-R3 cells)	DNA damage (γ-H2AX) ([3]; PBM-R tumor cells)	phosphorylation of STAT3 [4]	PDX cells with increased phosphorylation level STAT3 [5]
COc1cc2cc(C(=O)CCC(=O)O)sc2cc1OC [MSA-2]	successfully activated myeloid DCs and repolarized M2-like TAM to M1-like status	did not significantly affect	–	–	–	–
O=C(c1cc(Cc2n[nH]c(=O)c3ccccc23)ccc1F)N1CCN(C(=O)C2CC2)CC1 [olaparib]	–	–	a little DNA damage signaling	significantly increased DNA damage	increased phosphorylation levels of STAT3 in cultured PBM cells in a dose-dependent manner	3 out of 4
